Assay results taken from ChEMBL document CHEMBL1201862, “PubChem BioAssay data set” (2004).
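Five compound concentrations were applied to cells in 96-well plates for 48 hours; endpoints were derived by simple linear interpolation of the resulting dose-response curve. GI50 = concentration required for 50% inhibition of growth.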 Calls of active or inactive are those of the source. Rule as the data show it: active = GI50 up to about 1.1 µM and inactive = higher.

Key:
Experiment in all cases: DTP human tumour cell line panel, 48 h
[1] = tested on: A498
[2] = tested on: A549
[3] = tested on: DU-145
[4] = tested on: HOP-92
[5] = tested on: LOX IMVI
[6] = tested on: MCF7
[7] = tested on: MDA-N
[8] = tested on: MOLT-4
[9] = tested on: NCI-H460
[10] = tested on: NCI-H522
[11] = tested on: NCI/ADR-RES
[12] = tested on: OVCAR-8
[13] = tested on: SF-268
[14] = tested on: SK-MEL-2
[15] = tested on: SNB-75
[16] = tested on: T47D
[17] = tested on: U-251
[18] = tested on: UACC-62

Compound: COc1cc(C2C3=C(COC3=O)Oc3cc4c(cc32)OCO4)ccc1O (stereo not given)
- GI50 [1]: 0.668 µM (active)
- GI50 [2]: 0.41 µM (active)
- GI50 [3]: 0.514 µM (active)
- GI50 [4]: 3.59 µM (inactive)
- GI50 [5]: 0.601 µM (active)
- GI50 [6]: 0.277 µM (active)
- GI50 [7]: 0.11 µM (active)
- GI50 [8]: 0.543 µM (active)
- GI50 [9]: 0.308 µM (active)
- GI50 [10]: 0.0792 µM (active)
- GI50 [11]: 0.242 µM (active)
- GI50 [12]: 0.69 µM (active)
- GI50 [13]: 2.07 µM (inactive)
- GI50 [14]: 0.543 µM (active)
- GI50 [15]: 0.225 µM (active)
- GI50 [16]: 0.49 µM (active)
- GI50 [17]: 0.467 µM (active)
- GI50 [18]: 0.356 µM (active)

Compound: NC(=S)Nc1nc(=S)[nH]c2c1SC1=N/C(=C\c3ccco3)C(=O)N12
- GI50 [1]: > 100 µM (inactive)
- GI50 [2]: > 100 µM (inactive)
- GI50 [3]: > 100 µM (inactive)
- GI50 [4]: > 100 µM (inactive)
- GI50 [5]: 40.6 µM (inactive)
- GI50 [6]: 29.1 µM (inactive)
- GI50 [7]: > 100 µM (inactive)
- GI50 [8]: 44.1 µM (inactive)
- GI50 [9]: 68.7 µM (inactive)
- GI50 [10]: 27 µM (inactive)
- GI50 [11]: > 100 µM (inactive)
- GI50 [12]: > 100 µM (inactive)
- GI50 [13]: > 100 µM (inactive)
- GI50 [14]: > 83.4 µM (inactive)
- GI50 [15]: > 57.1 µM (inactive)
- GI50 [16]: 61.8 µM (inactive)
- GI50 [17]: > 100 µM (inactive)
- GI50 [18]: > 100 µM (inactive)

Compound: CC(=O)N1C(CCc2ccccc2)CC(C)(C=O)C1Cc1ccc(O[Si](C(C)C)(C(C)C)C(C)C)cc1 (stereo not given)
- GI50 [1]: 2.87 µM (inactive)
- GI50 [2]: 3.87 µM (inactive)
- GI50 [3]: 5.61 µM (inactive)
- GI50 [4]: 9.71 µM (inactive)
- GI50 [5]: 1.94 µM (inactive)
- GI50 [6]: 2.05 µM (inactive)
- GI50 [7]: 2.39 µM (inactive)
- GI50 [8]: 1.06 µM (active)
- GI50 [9]: 2.96 µM (inactive)
- GI50 [10]: 2.15 µM (inactive)
- GI50 [11]: 8.81 µM (inactive)
- GI50 [12]: 4.39 µM (inactive)
- GI50 [13]: 4.19 µM (inactive)
- GI50 [14]: 3.48 µM (inactive)
- GI50 [15]: 3.92 µM (inactive)
- GI50 [16]: 2.2 µM (inactive)
- GI50 [17]: 3.12 µM (inactive)
- GI50 [18]: 4.68 µM (inactive)

Compound: CCCCCCCC(=O)OC[n+]1cccc(-c2c(COC(=O)NC(C)C)c(COC(=O)NC(C)C)c3n2CCC3)c1
- GI50 [1]: 35.3 µM (inactive)
- GI50 [2]: > 96.2 µM (inactive)
- GI50 [3]: > 83.9 µM (inactive)
- GI50 [4]: 44.8 µM (inactive)
- GI50 [5]: 60.3 µM (inactive)
- GI50 [6]: 45.6 µM (inactive)
- GI50 [7]: > 100 µM (inactive)
- GI50 [8]: 20.1 µM (inactive)
- GI50 [9]: 46.1 µM (inactive)
- GI50 [10]: 40.4 µM (inactive)
- GI50 [11]: > 100 µM (inactive)
- GI50 [12]: 82 µM (inactive)
- GI50 [13]: > 55.8 µM (inactive)
- GI50 [14]: > 100 µM (inactive)
- GI50 [15]: > 78 µM (inactive)
- GI50 [16]: > 93.3 µM (inactive)
- GI50 [17]: > 72.8 µM (inactive)
- GI50 [18]: 38.1 µM (inactive)

Compound: O[C@]12C=C(c3nccc4c3[nH]c3ccccc34)[C@@H]3CCN(CCCC/C=C\CC1)C[C@@]31CC3/C=C\CCCCN3[C@H]12 (stereo not given in full)
- GI50 [1]: 0.364 µM (active)
- GI50 [2]: 0.36 µM (active)
- GI50 [3]: 0.344 µM (active)
- GI50 [4]: 0.252 µM (active)
- GI50 [5]: 0.275 µM (active)
- GI50 [6]: 0.478 µM (active)
- GI50 [7]: 0.367 µM (active)
- GI50 [8]: 0.138 µM (active)
- GI50 [9]: 0.191 µM (active)
- GI50 [10]: 0.263 µM (active)
- GI50 [11]: 0.514 µM (active)
- GI50 [12]: 0.331 µM (active)
- GI50 [13]: 0.533 µM (active)
- GI50 [14]: 0.244 µM (active)
- GI50 [15]: 0.242 µM (active)
- GI50 [16]: 0.34 µM (active)
- GI50 [17]: 0.355 µM (active)
- GI50 [18]: 0.0733 µM (active)
